# Data taken from US8420600B2 (Vallinex, Inc., priority 2002, dated 2013).
# Values joined by “and” are separate entries in the source; they are usually repeats but may differ in a detail not shown here. Equal entries are not always repeated.
# Experiments:
# [1] = tested on: subjects with osteoarthritis of the knee; test: Osteoarthritis of the Knee Safety Study: safety and tolerability of intra-articular capsaicin; type: in vivo, human
# Experimental: The primary objective of the study was to evaluate the safety and tolerability of intra-articular capsaicin, when co-administered with intra-articular local anesthetic, compared to placebo, in subjects with end-stage osteoarthritis of the knee, already scheduled to receive knee replacements.
# (§1) The study was designed to include 16 evaluation subjects. […] Sixteen subjects completed the study.
# (§2) Patients were treated randomly and in double-blind fashion in four treatment cohorts, with each cohort having a progressively longer interval between the intra-articular administration of study medication and subsequent total knee replacement (2, 4, 7, and 14 days). […] Gross and microscopic pathology analysis was completed for each treatment cohort before the next treatment cohort was treated.
# (§3) Each subject had 3 study visits: a Screening Day (Day −7 to −1), the Treatment Day (Day 0), and a Post-Treatment Day (scheduled for Day +2, +4, +7, or +14). On the Treatment Day the subject was randomized, pre-treatment evaluation was performed. The patients were brought into the procedure room, and a VAS pain score was taken (0 mm—no pain, 100 mm—extreme pain). Once the patient had marked his or her pain on the card, he/she was prepped for knee cannulation. Once the cannula was placed, the patient received by intra-articular infiltration, 3 mg/kg (maximum dose of 200 mg) of 2% lignocaine into the knee scheduled to be replaced.
# VAS pain scores as well as verbal reports were taken immediately following administration, as well as prior to knee replacement surgery. No subjects discontinued from the study due to adverse events.
# On the Post-Treatment Day, study evaluation was performed followed by the scheduled knee replacement, with intra-operative bone and soft tissue biopsies performed for subsequent examination. […] This therefore left the 3 placebo and 9 active patients from the 4 day, 7 day, and 14 day cohorts.
# [2] = tested on: subjects undergoing transpositional osteotomy (bunionectomy); test: Bunionectomy Efficacy Study: VAS pain score and rescue medication; type: in vivo, human; conditions: for VAS pain score (Table 4), mean +/− SEM: 1000 μg into the wound prior to closure, n = 11
# Experimental: The primary efficacy endpoint was the proportion of subjects in each treatment group requiring opioid analgesia in the first 24 hours post-operatively. The proportions were compared amongst treatment groups using the Cochran-Haenszel test. Secondary efficacy end points included: i) proportion of subjects in each treatment group requiring opioid analgesia in the first 36 hour period post-operatively (Similarly, the proportions were compared amongst treatment groups using the Cochran-Haenszel test); ii) proportion of subjects in each treatment group requiring opioid analgesia in the 10 day period post-operatively (Similarly, the proportions were compared amongst treatment groups using the Cochran-Haenszel test); iii) time to first usage of opioid analgesia in each treatment group (a survival analysis approach will be used: the product-limit (Kaplan-Meier) method will be applied to time to first usage of opioid analgesia. The median time to first usage of opioid analgesia will be estimated in both treatment groups. Pairwise comparisons will be performed to test for equality of the survival curves between the 2 treatment groups using both the log-rank and the Wilcoxon test); iv) total usage of analgesia in each treatment group (the total usage of analgesia will be compared by an analysis of variance with treatment and center as independent variables. A pairwise comparison will be performed between the treatment groups); and v) VAS assessment of pain at the site of operation in each treatment group (The VAS score at each time point will be compared by an analysis of variance with treatment and center as independent variables. A pairwise comparison will be performed between the treatment groups). […] The efficacy analysis was performed on the data obtained ten days postoperatively. The safety analysis was performed based on the safety data for the entire study, including the 6 week and 12 week follow-up periods. The blind was broken at the time the efficacy analysis was performed. However, the individual treatment assignment was available to the statistical analysis group only. All other personnel involved in the study, including the Investigator, study monitor and proprietary staff, remained blinded until the entire study was completed.
# The study was designed to include 40 evaluation subjects. […] Each subject had six (6) study visits: a Screening Day (Day −28 to −1), an Operation Day (Day 0), and four (4) Follow-up visits (scheduled for Days 3, 10 and weeks 6 and 12).
# On Operation Day (Day 0) the following was performed: a) Pre-operation: Prior to the initiation of an ankle block, inclusion/exclusion criteria assessment was performed. […] Immediately prior to wound closure, the Investigator slowly dripped the study medication (4 mL) from a syringe into the wound, ensuring even tissue exposure. The wound was then closed according to normal practices and procedures.
# In the 24 hours following administration of study medication, vital signs (supine pulse rate and blood pressure) were recorded at 1, 2, 4 and 24 hours post administration. VAS assessment of pain at the operation site was performed at 1, 4, 8, 12 and 24 hours post administration. In those instances where VAS measurements coincide with blood sampling procedures, the VAS assessment was performed first. […] The quantity of each blood sample was 10 mL. Laboratory safety assessments, e.g., haematology, biochemistry, urinalysis were performed at 24 hours post administration. Adverse events were spontaneously reported by the subject and recorded. Rescue analgesia medication was provided to the subject if required (initially diclofenac 50 mg, repeated at 8 hourly intervals if necessary). When diclofenac was judged by the Investigator to provide inadequate pain relief then the subject was provided with alfentanil, 1 mg, repeated at 6 hourly intervals when necessary.
# [3] = tested on: radiation induced hyperalgesia; conditions: systemically delivered, cited from earlier work
# [4] = tested on: subjects with osteoarthritis of the knee; test: Osteoarthritis of the Knee Safety Study: VAS pain at the target knee; type: in vivo, human
# Experimental: as §1, §2, §3
# VAS pain scores as well as verbal reports were taken immediately following administration, as well as prior to knee replacement surgery. No subjects discontinued from the study due to adverse events. […]
structure (smiles),measurement,setting,value
"COc1cc(CNC(=O)CCCC/C=C/C(C)C)ccc1O [capsaicin, N-(4-hydroxy-3-methoxybenzyl)-8-methylnon-trans-6-enamide]",duration of post-administration (hyper) algesic pain,"[1]; 300 μg dose group, individual subjects",17 minutes and 25 minutes (2×) and 42 minutes
same,proprioception at the injected knee,"[1]; any dose group, any time point",no discernable effect
same,average duration of post injection hyperalgesia,"[1]; burning sensation, 100 and 300 μg dose groups",less than thirty minutes
same,"erythema, edema or hemorrhage at the site of injection",[1]; in vivo,no treatment related signs
same,"histopathological examination of soft tissue, cartilage and bone",[1]; in vivo,"no treatment related effects on soft tissue, cartilage, or bone"
same,laboratory safety parameters and vital signs,[1]; in vivo,no treatment related effects on laboratory safety parameters or vital signs
same,systemic side effects,[1]; in vivo,No treatment related systemic side effects were seen
same,leakage of study drug from the joint space,"[1]; intra-articular, knee",low leakage
same,gross and microscopic pathology,[1]; knee tissue at replacement,normal
same,"VAS pain score (Table 4), mean +/− SEM",[2]; 8 hr,5.5 +/− 2.3
same,"VAS pain score (Table 4), mean +/− SEM",[2]; 12 hr,8.2 +/− 3.8
same,"VAS pain score (Table 4), mean +/− SEM",[2]; 24 hr,1.9 +/− 1.0
same,"VAS pain score (Table 4), mean +/− SEM",[2]; 48 hr,5.9 +/− 2.5
same,effect on opioid rescue,[2]; 1000 μg prior to wound closure,decreased opioid rescue
same,time at which a subject required rescue,"[2]; 1000 μg prior to wound closure, individual subjects",1 h and 4 h and 5 h and 8 h and 12 h
same,effect on radiation induced hyperalgesia,[3]; final doses of 25 mg/kg or less prior to ultra violet radiation,prevented radiation induced hyperalgesia
same,effect on pain threshold,[3]; final doses of 25 mg/kg or less,did not elevate the pain threshold above normal range
same,"reduction of VAS pain score, prior to drug administration vs day of surgery","[4]; 9 active patients of the 4 day, 7 day and 14 day cohorts, 10, 100 and 300 μg pooled",62±14%
same,treatment related indication of efficacy (VAS),"[4]; dose levels 10 μg, 100 μg and 300 μg",No clear treatment related indication of efficacy was seen
